Results taken from the NIST ThermoML archive (doi:10.1021/je200369m).
Where “and” joins values, the source holds several entries; their conditions need not be identical. Equal values may be shown once.

Conditions: for mass density: Fluid (supercritical or subcritical phases), Buoyancy - hydrostatic balance with magnetic suspension - two sinkers; for vapor or sublimation pressure: Liquid, Closed cell

C=C(F)C(F)(F)F [2,3,3,3-tetrafluoro-1-propene]
Conditions | mass density [kg/m3]
232.01 K, 1003.6 kPa | 1297.66
235.01 K, 1354.4 kPa | 1290.57
240.01 K, 1309.7 kPa | 1276.93
240.01 K, 5597.9 kPa | 1288.72
245 K, 5368.7 kPa | 1275.09
250 K, 2009.3 kPa | 1251.5
250 K, 9475.2 kPa | 1273.53
255 K, 5782.7 kPa | 1249.79
260 K, 1001.4 kPa | 1219.36
260 K, 9586.2 kPa | 1248.32
265 K, 3824.7 kPa | 1215.48
270 K, 1753.3 kPa | 1192.46
270 K, 7264.8 kPa | 1214.11
275 K, 4931.1 kPa | 1190.99
280 K, 1780.9 kPa | 1161.43
280 K, 8123.4 kPa | 1189.71
285 K, 4675.9 kPa | 1160.07
290 K, 1604.8 kPa | 1127.36
290 K, 7579.1 kPa | 1158.85
295 K, 4198.6 kPa | 1126
300 K, 1079.2 kPa | 1087.77
300 K, 6812.1 kPa | 1124.85
305 K, 3364.3 kPa | 1086.43
309.99 K, 5673.9 kPa | 1085.35
310 K, 1004 kPa | 1047.05
314.99 K, 2511.7 kPa | 1041.01
319.99 K, 553.9 kPa | 26.402
320 K, 973.2 kPa | 51.726
320 K, 4518 kPa | 1040.05
325 K, 1456.3 kPa | 982.689
329.99 K, 574 kPa | 26.306
330 K, 979.2 kPa | 49.047
330 K, 985.9 kPa | 49.464
330 K, 3108.2 kPa | 981.791
335 K, 1592.5 kPa | 92.726
335 K, 1798 kPa | 932.524
335 K, 4770.8 kPa | 980.976
340 K, 593.8 kPa | 26.211
340 K, 980.9 kPa | 46.55
340 K, 993.5 kPa | 47.298
340 K, 1640.5 kPa | 92.612
340 K, 1827.8 kPa | 110.941
340 K, 3191.5 kPa | 931.599
345 K, 4594.1 kPa | 930.707
350 K, 613.2 kPa | 26.12
350 K, 985.9 kPa | 44.652
350 K, 1003 kPa | 45.555
350 K, 1736.8 kPa | 92.623
350 K, 2261.9 kPa | 146.58
350 K, 2461 kPa | 839.342
350 K, 6005.4 kPa | 929.873
355 K, 2740.3 kPa | 801.182
360 K, 632.4 kPa | 26.029
360 K, 987.2 kPa | 42.763
360 K, 1005.2 kPa | 43.637
360 K, 1830.5 kPa | 92.622
360 K, 2067 kPa | 110.845
360 K, 2433.6 kPa | 146.594
360 K, 2545.4 kPa | 160.529
360 K, 2767.9 kPa | 197.534
360 K, 3210.5 kPa | 772.483
360 K, 3638.8 kPa | 800.559
362 K, 2963.7 kPa | 235.115
365 K, 991.9 kPa | 42.073
365 K, 1876.6 kPa | 92.619
365 K, 2516.7 kPa | 146.549
365 K, 2892.6 kPa | 197.483
365 K, 3086.7 kPa | 243.237
365 K, 4553.7 kPa | 799.933
368 K, 3184.3 kPa | 243.231
370 K, 651.2 kPa | 25.938
370 K, 993.7 kPa | 41.326
370 K, 996.3 kPa | 41.436
370 K, 2181.6 kPa | 110.789
370 K, 2598.5 kPa | 146.499
370 K, 2866.8 kPa | 176.561
370 K, 3014.9 kPa | 197.482
370 K, 3248.6 kPa | 243.253
370 K, 3252.2 kPa | 244.129
370 K, 5480.7 kPa | 799.34
370.01 K, 1920.5 kPa | 92.497
380 K, 667.9 kPa | 25.765
380 K, 994.8 kPa | 39.809
380 K, 2293.9 kPa | 110.737
380 K, 3047.3 kPa | 173.864
380 K, 3496.1 kPa | 231.99
380 K, 6583.2 kPa | 770.356
390 K, 670.7 kPa | 25.062
390 K, 987.8 kPa | 38.088
390 K, 2404.1 kPa | 110.68
400 K, 683.2 kPa | 24.785
400 K, 991.4 kPa | 36.952
400 K, 2512.9 kPa | 110.64

Conditions | vapor or sublimation pressure
250 K | 133.03 kPa and 133.37 kPa
260 K | 197.44 kPa
270 K | 283.41 kPa and 283.03 kPa and 283.48 kPa
280 K | 395.91 kPa
290 K | 538.95 kPa and 539.38 kPa and 539.42 kPa
300 K | 718.68 kPa
309.99 K | 938.57 kPa
310 K | 939.28 kPa and 939.3 kPa
312 K | 989.09 kPa
314 K | 1040.9 kPa
316 K | 1094.4 kPa
319.99 K | 1206.8 kPa and 1207 kPa and 1206.4 kPa
320 K | 1207.6 kPa and 1207.7 kPa
330 K | 1529 kPa
340 K | 1910.2 kPa
350 K | 2361.4 kPa
355 K | 2616.5 kPa
360 K | 2893.8 kPa
362 K | 3011.5 kPa
364 K | 3133.6 kPa
366 K | 3260.2 kPa
